These are literature values, as cited in patent publication US20150209442A1, “METHOD TO IMPROVE PHARMACOKINETICS OF DRUGS” (The Board of Regents of the University of Texas System, priority 2012, published 2015).

A value given as a limit tells only on which side of the number the result lay.

In one series the test system is TRPV1. As to conditions: spinal cord; completely reversible by a TRPV1 antagonist.

9-hydroxyoctadecadienoic acid [9-HODE]: the tactile allodynia entry in the series on TRPV1 is “results in tactile allodynia”.
Take `CC(C(=O)O)c1ccc(-c2ccccc2)c(F)c1` (stereo not shown) [flurbiprofen]: the “bound to plasma proteins” value is on record as greater than 99%. Further, the “free (unbound) share of total concentration in plasma” value (plasma) is given as roughly 0.1%.
In the case of `COc1cc(CNC(=O)CCCC/C=C/C(C)C)ccc1O` [capsaicin], the tactile allodynia entry in the series on TRPV1 is given as “results in tactile allodynia”.
